These results are taken from ChEMBL document CHEMBL3232969, “Structure-based design and synthesis of tricyclic IAP (Inhibitors of Apoptosis Proteins) inhibitors” (Bioorg Med Chem Lett, 2014).

Each structure is given as a SMILES string. In brackets after ≈: the same amount, converted by molar mass.

In one data set the test system is MDA-MB-231. Nature of the data set: Growth inhibition of human MDA-MB-231 cells. The data set is classed as functional. To be noted: Homo sapiens, MDA-MB-231.
Data set [1] is described as follows: Percentage unbound in human plasma.
Data set [2] is described as follows: Aqueous solubility of the compound.
The nature of data set [3]: Lipophilicity, log D of the compound. To be noted: octanol/water.
A short description of data set [4]: Intrinsic clearance in human liver microsomes. Particulars: liver microsomes.
In data set [5] the target is E3 ubiquitin-protein ligase XIAP (Homo sapiens, UniProt P98170). Nature of the data set: Inhibition of XIAP BIR3 domain (unknown origin) by fluorescence polarization assay.
E3 ubiquitin-protein ligase XIAP, sequence (P98170 whole entry, the tested form may be a part): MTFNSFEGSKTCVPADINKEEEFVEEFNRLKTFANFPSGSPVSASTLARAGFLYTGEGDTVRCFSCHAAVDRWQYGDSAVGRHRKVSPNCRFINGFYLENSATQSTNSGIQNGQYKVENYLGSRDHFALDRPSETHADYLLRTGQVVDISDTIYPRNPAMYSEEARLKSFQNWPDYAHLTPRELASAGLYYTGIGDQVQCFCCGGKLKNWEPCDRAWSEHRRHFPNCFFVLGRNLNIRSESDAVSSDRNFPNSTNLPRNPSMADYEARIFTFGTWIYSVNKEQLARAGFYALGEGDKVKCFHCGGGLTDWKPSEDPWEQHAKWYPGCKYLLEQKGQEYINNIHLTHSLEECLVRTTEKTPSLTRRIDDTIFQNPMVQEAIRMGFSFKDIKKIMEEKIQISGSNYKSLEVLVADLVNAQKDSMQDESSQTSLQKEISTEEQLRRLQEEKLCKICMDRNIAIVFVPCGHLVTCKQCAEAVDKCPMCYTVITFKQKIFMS

Compound `CN[C@@H](C)C(=O)N[C@H]1CCC[C@H]2C[C@H]3CCN(CCc4ccc(Cl)cc4)C[C@H]3N2C1=O` came in with a GI50 with MDA-MB-231 of 340 nM. Besides, the fraction unbound in data set [1] (Fu) is 0.24. Further, in data set [2], the solubility is more than 1000 µM. Besides, the log distribution coefficient (logD) in data set [3] (logD) came out at 1.8. This compound gave a microsomal CLint in data set [4] (CLH) of 6.6 µL/min/mg.

Regarding `CN[C@@H](C)C(=O)N[C@H]1CCC[C@H]2C[C@H]3CCN(CCc4ccc(Cl)c(Cl)c4)C[C@H]3N2C1=O`, in the data set on MDA-MB-231, growth was halved (GI50) at 260 nM. This compound returned an unbound share (fraction unbound) in data set [1] (Fu) of 0.065. This compound also displayed a solubility in data set [2] of more than 1000 µM. In data set [3] (logD), this compound yielded a logD of 2.3. This compound also showed a microsomal CLint in data set [4] (CLH) of 28 µL/min/mg.

The compound `CN[C@@H](C)C(=O)N[C@H]1CCC[C@H]2C[C@H]3CCN(CCc4ccc([N+](=O)[O-])cc4)C[C@H]3N2C1=O` registered a GI50 in the data set on MDA-MB-231 of 280 nM. For the same compound, the fraction unbound in data set [1] (Fu) is 0.47. This compound also showed a solubility in data set [2] of more than 1000 µM. The same compound showed a logD in data set [3] (logD) of 1. Besides, in data set [4] (CLH), the microsomal CLint is less than 4 µL/min/mg.

`CN[C@@H](C)C(=O)N[C@H]1CCC[C@H]2C[C@H]3CCN(CCc4ccccn4)C[C@H]3N2C1=O` yielded an IC50 in data set [5] of more than 10000 nM. In the data set on MDA-MB-231, this compound came in with a GI50 of 10000 nM. The logD in data set [3] (logD) is -0.2.

`CN[C@@H](C)C(=O)N[C@H]1CCC[C@H]2C[C@H]3CCN(CCC4=C(C)OCN4C)C[C@H]3N2C1=O`: the IC50 in data set [5] was more than 10000 nM. For the same compound, the solubility in data set [2] is more than 1000 µM. Moreover, in data set [3] (logD), the logD was determined as 0.1.

The compound `CN[C@@H](C)C(=O)N[C@H]1CCC[C@H]2C[C@H]3CCN(CCc4nc5cc(C)ccc5[nH]4)C[C@H]3N2C1=O` showed a half-inhibitory concentration (IC50) in data set [5] of more than 10000 nM. The solubility in data set [2] was more than 1000 µM. This compound came in with a logD in data set [3] (logD) of 1.3. Further, the microsomal CLint in data set [4] (CLH) was determined as 9.1 µL/min/mg.

As to `CN[C@@H](C)C(=O)N[C@H]1CCC[C@H]2C[C@H]3CCN(CCCc4ccccc4)C[C@H]3N2C1=O`, the IC50 in data set [5] is more than 10000 nM. In addition, the GI50 with MDA-MB-231 is more than 11000 nM. This compound also yielded an unbound share (fraction unbound) in data set [1] (Fu) of 0.47. The same compound came in with a logD in data set [3] (logD) of 1.6.

As for `CN[C@@H](C)C(=O)N[C@H]1CCC[C@H]2C[C@H]3CCN(CC4CCCCC4)C[C@H]3N2C1=O`, the IC50 in data set [5] is more than 10000 nM. Besides, in the data set on MDA-MB-231, the GI50 worked out at 2000 nM. This compound also registered a logD in data set [3] (logD) of 0.9. The microsomal CLint in data set [4] (CLH) stood at 8.9 µL/min/mg.

In the case of `CN[C@@H](C)C(=O)N[C@H]1CCC[C@H]2C[C@H]3CCN(CC(C)C)C[C@H]3N2C1=O`, in data set [5], the IC50 was more than 10000 nM. In data set [3] (logD), this compound registered a logD of 0.1.

On to `CN[C@@H](C)C(=O)N[C@H]1CCC[C@H]2C[C@H]3CCN(C(=O)Cc4ccccc4)C[C@H]3N2C1=O`, for which the concentration for 50% growth inhibition (GI50) with MDA-MB-231 was found to be 320 nM. Moreover, in data set [1] (Fu), the fraction unbound came out at 0.66. In data set [2], this compound gave a solubility of more than 1000 µM. This compound displayed a logD in data set [3] (logD) of 0.4. The compound also gave a microsomal CLint in data set [4] (CLH) of 6.5 µL/min/mg.

In the data set with MDA-MB-231, `CN[C@@H](C)C(=O)N[C@H]1CCC[C@H]2C[C@H]3CCN(C(=O)C(c4ccccc4)c4ccccc4)C[C@H]3N2C1=O` yielded a GI50 of 3000 nM. Also, the free fraction (fraction unbound) in data set [1] (Fu) was determined as 0.039. The same compound registered a solubility in data set [2] of more than 1000 µM. In addition, the log distribution coefficient (logD) in data set [3] (logD) came out at 1.4. The compound also had a microsomal CLint in data set [4] (CLH) of 27 µL/min/mg.

For `CN[C@@H](C)C(=O)N[C@H]1CCC[C@H]2C[C@H]3CCN(C(=O)Oc4ccccc4)C[C@H]3N2C1=O`, the GI50 in the data set on MDA-MB-231 turned out to be 910 nM. For the same compound, the fraction unbound in data set [1] is 0.51. In data set [2], the solubility amounted to 700 µM (≈ 300 µg/mL). In data set [3], the logD came to 0.7. Moreover, the microsomal CLint in data set [4] stood at 6.3 µL/min/mg.

For `CN[C@@H](C)C(=O)N[C@H]1CCC[C@H]2C[C@H]3CCN(C(=O)Nc4ccccc4)C[C@H]3N2C1=O`, growth in the data set with MDA-MB-231 was halved (GI50) at 3900 nM. Moreover, the fraction unbound in data set [1] (Fu) worked out at 0.62. Also, the solubility in data set [2] is more than 1000 µM. In data set [3] (logD), this compound yielded a logD of 0.6. For the same compound, the microsomal CLint in data set [4] (CLH) is 6.7 µL/min/mg.
